The assay deals with 20S proteasome (chymotrypsin-like activity) (Homo sapiens, UniProt P28074). The experiment in a line: fluorogenic Suc-LLVY-AMC peptidase assay with purified […] proteasome. Format: biochemical.

These results are taken from publication PMC3303154 (2011).

One may read the IC50 as the concentration needed to halve the response being measured. Low readings indicate higher potency, high ones lower potency.

Sequence of 20S proteasome (chymotrypsin-like activity) (P28074 60-263): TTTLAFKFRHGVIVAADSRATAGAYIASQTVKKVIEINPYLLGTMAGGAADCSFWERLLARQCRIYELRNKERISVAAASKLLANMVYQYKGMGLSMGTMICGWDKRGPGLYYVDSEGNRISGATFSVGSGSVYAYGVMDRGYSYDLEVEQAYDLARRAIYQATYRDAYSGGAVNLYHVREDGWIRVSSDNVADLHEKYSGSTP

In turn, `CC(C)=CC[C@]12Oc3cc(O)c([C@H]4C=C(C)C[C@H](c5ccc(O)cc5O)[C@H]4C(=O)c4ccc(O)cc4O)c(O)c3C(=O)[C@@]1(O)Oc1cc(O)ccc12` [Sanggenon C] returned a half-maximal inhibitory concentration (IC50) of 4 µM.
